Laboratory results as given in PubChem BioAssay (NCI).
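Results reflect a 48-hour exposure of cells in 96-well plates to compound at five concentrations. Abbreviation: GI50, concentration required for 50% inhibition of growth. TGI marks complete inhibition of growth.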 *1 amine or outer side, *2 acyl side, *3 side chain or, on linkers, in order; H or OH if unused. Where a SMILES comes first, the peptide text is derived from it. Bridges are numbered along the chain shown (N, C = ends). [ ]: non-standard residue; d: D form. The star is where a group is joined. X34 = O=C(C(CCCCNO[*:3])N[*:1])[*:2]; Fmoc = O=C(OCC1c2ccccc2-c2ccccc21)*

How the values were obtained:
Test in all cases: DTP human tumour cell line panel, 48 h
786-0 renal = tested on: 786-0 renal
A498 renal = tested on: A498 renal
A549 NSCLC = tested on: A549 NSCLC
ACHN renal = tested on: ACHN renal
BT-549 breast = tested on: BT-549 breast
CAKI-1 renal = tested on: CAKI-1 renal
CCRF-CEM leukemia = tested on: CCRF-CEM leukemia
COLO 205 colon = tested on: COLO 205 colon
DU-145 prostate = tested on: DU-145 prostate
EKVX NSCLC = tested on: EKVX NSCLC
HCC-2998 colon = tested on: HCC-2998 colon
HCT-116 colon = tested on: HCT-116 colon
HCT-15 colon = tested on: HCT-15 colon
HL-60(TB) leukemia = tested on: HL-60(TB) leukemia
HOP-62 NSCLC = tested on: HOP-62 NSCLC
HOP-92 NSCLC = tested on: HOP-92 NSCLC
HS 578T breast = tested on: HS 578T breast
HT29 colon = tested on: HT29 colon
IGROV1 ovarian = tested on: IGROV1 ovarian
K-562 leukemia = tested on: K-562 leukemia
KM12 colon = tested on: KM12 colon
LOX IMVI melanoma = tested on: LOX IMVI melanoma
M14 melanoma = tested on: M14 melanoma
MCF7 breast = tested on: MCF7 breast
MDA-MB-231 breast = tested on: MDA-MB-231 breast
MDA-MB-435 = tested on: MDA-MB-435
MOLT-4 leukemia = tested on: MOLT-4 leukemia
NCI-H226 lung = tested on: NCI-H226 lung
NCI-H23 lung = tested on: NCI-H23 lung
NCI-H460 lung = tested on: NCI-H460 lung
NCI-H522 lung = tested on: NCI-H522 lung
NCI/ADR-RES ovarian = tested on: NCI/ADR-RES ovarian
OVCAR-3 ovarian = tested on: OVCAR-3 ovarian
OVCAR-4 ovarian = tested on: OVCAR-4 ovarian
OVCAR-5 ovarian = tested on: OVCAR-5 ovarian
OVCAR-8 ovarian = tested on: OVCAR-8 ovarian
PC-3 prostate = tested on: PC-3 prostate
RPMI-8226 leukemia = tested on: RPMI-8226 leukemia
RXF 393 renal = tested on: RXF 393 renal
SF-268 CNS = tested on: SF-268 CNS
SF-295 CNS = tested on: SF-295 CNS
SF-539 CNS = tested on: SF-539 CNS
SK-MEL-2 melanoma = tested on: SK-MEL-2 melanoma
SK-MEL-28 melanoma = tested on: SK-MEL-28 melanoma
SK-MEL-5 melanoma = tested on: SK-MEL-5 melanoma
SK-OV-3 ovarian = tested on: SK-OV-3 ovarian
SN12C renal = tested on: SN12C renal
SNB-19 CNS = tested on: SNB-19 CNS
SNB-75 CNS = tested on: SNB-75 CNS
SR leukemia = tested on: SR leukemia
SW-620 colon = tested on: SW-620 colon
T-47D breast = tested on: T-47D breast
U251 CNS = tested on: U251 CNS
UACC-257 melanoma = tested on: UACC-257 melanoma
UACC-62 melanoma = tested on: UACC-62 melanoma
UO-31 renal = tested on: UO-31 renal
MALME-3M melanoma = tested on: MALME-3M melanoma
TK-10 renal = tested on: TK-10 renal

`O=C(Nc1cccc(Cl)c1)c1cccc(NC2=C(Cl)C(=O)N(Cc3ccccc3)C2=O)c1` was tested, and the GI50 (786-0 renal) was 35.8 µM, the TGI (786-0 renal) was > 100 µM and the GI50 (A498 renal) was > 100 µM. The TGI (A498 renal) was > 100 µM, the GI50 (A549 NSCLC) was > 100 µM and the TGI (A549 NSCLC) was > 100 µM. For the same compound, the GI50 (ACHN renal) was 87.4 µM, the TGI (ACHN renal) was > 100 µM and the GI50 (BT-549 breast) was 36.9 µM. The TGI (BT-549 breast) was > 100 µM, the GI50 (CAKI-1 renal) was 15 µM and the TGI (CAKI-1 renal) was 49.1 µM. For the same compound, the GI50 (CCRF-CEM leukemia) was 7.2 µM, the TGI (CCRF-CEM leukemia) was > 100 µM and the GI50 (COLO 205 colon) was > 100 µM. The TGI (COLO 205 colon) was > 100 µM, the GI50 (DU-145 prostate) was 46 µM and the TGI (DU-145 prostate) was > 100 µM. For the same compound, the GI50 (EKVX NSCLC) was > 100 µM, the TGI (EKVX NSCLC) was > 100 µM and the GI50 (HCC-2998 colon) was 19.8 µM. The TGI (HCC-2998 colon) was 62.4 µM, the GI50 (HCT-116 colon) was 10.1 µM and the TGI (HCT-116 colon) was 42.4 µM. The GI50 (HCT-15 colon) was 30 µM, the TGI (HCT-15 colon) was > 100 µM and the GI50 (HL-60(TB) leukemia) was 12.6 µM. The TGI (HL-60(TB) leukemia) was 31.8 µM, the GI50 (HOP-62 NSCLC) was 0.84 µM and the TGI (HOP-62 NSCLC) was 42.8 µM. The GI50 (HOP-92 NSCLC) was 16.1 µM, the TGI (HOP-92 NSCLC) was > 100 µM and the GI50 (HS 578T breast) was > 100 µM. The TGI (HS 578T breast) was > 100 µM, the GI50 (HT29 colon) was 55.7 µM and the TGI (HT29 colon) was > 100 µM. For the same compound, the GI50 (IGROV1 ovarian) was 3.12 µM, the TGI (IGROV1 ovarian) was 9.81 µM and the GI50 (K-562 leukemia) was 0.662 µM. It also gave a TGI (K-562 leukemia) of 35.5 µM, a GI50 (KM12 colon) of 28.2 µM and a TGI (KM12 colon) of 80.4 µM. The GI50 (LOX IMVI melanoma) was 28.3 µM, the TGI (LOX IMVI melanoma) was > 100 µM and the GI50 (M14 melanoma) was 18.3 µM. It also gave a TGI (M14 melanoma) of 67.3 µM, a GI50 (MCF7 breast) of 25.6 µM and a TGI (MCF7 breast) of 83.7 µM. The GI50 (MDA-MB-231 breast) was 4.54 µM, the TGI (MDA-MB-231 breast) was > 100 µM and the GI50 (MDA-MB-435) was 25.9 µM. The TGI (MDA-MB-435) was 91.3 µM, the GI50 (MOLT-4 leukemia) was 22.2 µM and the TGI (MOLT-4 leukemia) was > 100 µM. The GI50 (NCI-H226 lung) was 22.4 µM, the TGI (NCI-H226 lung) was > 100 µM and the GI50 (NCI-H23 lung) was > 100 µM. The TGI (NCI-H23 lung) was > 100 µM, the GI50 (NCI-H460 lung) was 37 µM and the TGI (NCI-H460 lung) was > 100 µM. The GI50 (NCI-H522 lung) was 18.8 µM, the TGI (NCI-H522 lung) was 53 µM and the GI50 (NCI/ADR-RES ovarian) was 89.8 µM. The TGI (NCI/ADR-RES ovarian) was > 100 µM, the GI50 (OVCAR-3 ovarian) was 24.3 µM and the TGI (OVCAR-3 ovarian) was > 100 µM. For the same compound, the GI50 (OVCAR-4 ovarian) was 68.5 µM, the TGI (OVCAR-4 ovarian) was > 100 µM and the GI50 (OVCAR-5 ovarian) was > 100 µM. The TGI (OVCAR-5 ovarian) was > 100 µM, the GI50 (OVCAR-8 ovarian) was 56.4 µM and the TGI (OVCAR-8 ovarian) was > 100 µM. The GI50 (PC-3 prostate) was 21.9 µM, the TGI (PC-3 prostate) was 93.1 µM and the GI50 (RPMI-8226 leukemia) was 7.58 µM. For the same compound, the TGI (RPMI-8226 leukemia) was 53.3 µM, the GI50 (RXF 393 renal) was 85 µM and the TGI (RXF 393 renal) was > 100 µM. The GI50 (SF-268 CNS) was 25.5 µM, the TGI (SF-268 CNS) was 94.4 µM and the GI50 (SF-295 CNS) was 44.1 µM. For the same compound, the TGI (SF-295 CNS) was > 100 µM, the GI50 (SF-539 CNS) was 81.8 µM and the TGI (SF-539 CNS) was > 100 µM. For the same compound, the GI50 (SK-MEL-2 melanoma) was 26.7 µM, the TGI (SK-MEL-2 melanoma) was 68.6 µM and the GI50 (SK-MEL-28 melanoma) was > 100 µM. The TGI (SK-MEL-28 melanoma) was > 100 µM, the GI50 (SK-MEL-5 melanoma) was 34 µM and the TGI (SK-MEL-5 melanoma) was > 100 µM. The GI50 (SK-OV-3 ovarian) was > 100 µM, the TGI (SK-OV-3 ovarian) was > 100 µM and the GI50 (SN12C renal) was 2.62 µM. For the same compound, the TGI (SN12C renal) was 56.9 µM, the GI50 (SNB-19 CNS) was > 100 µM and the TGI (SNB-19 CNS) was > 100 µM. For the same compound, the GI50 (SNB-75 CNS) was > 100 µM, the TGI (SNB-75 CNS) was > 100 µM and the GI50 (SR leukemia) was 2.32 µM. For the same compound, the TGI (SR leukemia) was 10.5 µM, the GI50 (SW-620 colon) was 58.6 µM and the TGI (SW-620 colon) was > 100 µM. The GI50 (T-47D breast) was > 100 µM, the TGI (T-47D breast) was > 100 µM and the GI50 (U251 CNS) was 43.1 µM. The TGI (U251 CNS) was > 100 µM, the GI50 (UACC-257 melanoma) was 72.5 µM and the TGI (UACC-257 melanoma) was > 100 µM. For the same compound, the GI50 (UACC-62 melanoma) was 21.1 µM, the TGI (UACC-62 melanoma) was > 100 µM and the GI50 (UO-31 renal) was 36.4 µM. The TGI (UO-31 renal) was > 100 µM.
In the case of `NC(=O)CNC(=O)C1CCCN1C(=O)C1CCCCNOC(=O)CCC(NC(=O)OCC2c3ccccc3-c3ccccc32)C(=O)NC(Cc2c[nH]c3ccccc23)C(=O)N1` (stereo not drawn) (Fmoc-EW[X34]PG-NH2; ester 1-3; configuration not given here), the TGI (786-0 renal) is reported as > 100 µM, the TGI (A549 NSCLC) is reported as > 100 µM and the TGI (ACHN renal) is reported as > 100 µM. The TGI (BT-549 breast) was > 100 µM, the TGI (CCRF-CEM leukemia) was > 100 µM and the TGI (COLO 205 colon) was > 100 µM. For the same compound, the TGI (DU-145 prostate) was > 100 µM, the TGI (EKVX NSCLC) was > 100 µM and the TGI (HCC-2998 colon) was > 100 µM. For the same compound, the TGI (HCT-116 colon) was > 100 µM, the TGI (HCT-15 colon) was > 100 µM and the TGI (HL-60(TB) leukemia) was > 100 µM. The TGI (HOP-62 NSCLC) was > 100 µM, the TGI (HOP-92 NSCLC) was > 100 µM and the TGI (HS 578T breast) was > 100 µM. For the same compound, the TGI (HT29 colon) was > 100 µM, the TGI (IGROV1 ovarian) was > 100 µM and the TGI (K-562 leukemia) was > 100 µM. The TGI (KM12 colon) was > 100 µM, the TGI (LOX IMVI melanoma) was > 100 µM and the TGI (M14 melanoma) was > 100 µM. For the same compound, the TGI (MALME-3M melanoma) was > 100 µM, the TGI (MCF7 breast) was > 100 µM and the TGI (MDA-MB-231 breast) was > 100 µM. The TGI (MDA-MB-435) was > 100 µM, the TGI (MOLT-4 leukemia) was > 100 µM and the TGI (NCI-H226 lung) was > 100 µM. For the same compound, the TGI (NCI-H23 lung) was > 100 µM, the TGI (NCI-H460 lung) was > 100 µM and the TGI (NCI-H522 lung) was > 100 µM. For the same compound, the TGI (NCI/ADR-RES ovarian) was > 100 µM, the TGI (OVCAR-3 ovarian) was > 100 µM and the TGI (OVCAR-4 ovarian) was > 100 µM. The TGI (OVCAR-5 ovarian) was > 100 µM, the TGI (OVCAR-8 ovarian) was > 100 µM and the TGI (PC-3 prostate) was > 100 µM. The TGI (RPMI-8226 leukemia) was > 100 µM, the TGI (RXF 393 renal) was > 100 µM and the TGI (SF-268 CNS) was > 100 µM. For the same compound, the TGI (SF-295 CNS) was > 100 µM, the TGI (SF-539 CNS) was > 100 µM and the TGI (SK-MEL-2 melanoma) was > 100 µM. For the same compound, the TGI (SK-MEL-28 melanoma) was > 100 µM, the TGI (SK-MEL-5 melanoma) was > 100 µM and the TGI (SK-OV-3 ovarian) was > 100 µM. The TGI (SN12C renal) was > 100 µM, the TGI (SNB-19 CNS) was > 100 µM and the TGI (SNB-75 CNS) was > 100 µM. For the same compound, the TGI (SR leukemia) was > 100 µM, the TGI (SW-620 colon) was > 100 µM and the TGI (T-47D breast) was > 100 µM. The TGI (TK-10 renal) was > 100 µM, the TGI (U251 CNS) was > 100 µM and the TGI (UACC-257 melanoma) was > 100 µM. The TGI (UACC-62 melanoma) was > 100 µM and the TGI (UO-31 renal) was > 100 µM.
